Several values for one entry are separate records, joined by “and”; a condition that tells them apart may be missing. Equal values may be shown once. Inconclusive results and toxic doses are left out.

For this test, the system named is P388 leukemia ip, CD2F1 mice, survival T/C. Nature of the test: NCI In Vivo Anticancer Drug Screen. Data for tumor model P388 Leukemia (intraperitoneal) in CD2F1 (CDF1) mice. The conditions noted are these: endpoint: median survival time, higher = longer survival. Put shortly:
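Mice carrying the transplanted tumor received test compound or vehicle. Survival was recorded in each group, and the value is the treated-group measurement divided by that of the vehicle-treated control group.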

Setting [1] is: dose: 60.0 mg/kg/injection, schedule: Q01DX005 (ip), vehicle: saline with Tween-80.
The mark [2] stands for this setting: dose: 240.0 mg/kg/injection, schedule: Q01DX005 (ip), vehicle: saline with Tween-80.
Where [3] appears, read: dose: 120.0 mg/kg/injection, schedule: Q01DX005 (ip), vehicle: saline with Tween-80.
Setting [4] is: dose: 100.0 mg/kg/injection, schedule: Q04DX003 (ip), vehicle: saline with Tween-80.
Where [5] appears, read: dose: 200.0 mg/kg/injection, schedule: Q04DX003 (ip), vehicle: saline with Tween-80.
Where [6] appears, read: dose: 400.0 mg/kg/injection, schedule: Q04DX003 (ip), vehicle: saline with Tween-80.
Where [7] appears, read: dose: 50.0 mg/kg/injection, schedule: Q01DX005 (ip), vehicle: Klucel (hydroxypropylcellulose) (HPC).
Where [8] appears, read: dose: 100.0 mg/kg/injection, schedule: Q01DX005 (ip), vehicle: Klucel (hydroxypropylcellulose) (HPC).
Setting [9] is: dose: 100.0 mg/kg/injection, schedule: Q01DX005 (ip), vehicle: saline.
The mark [10] stands for this setting: dose: 200.0 mg/kg/injection, schedule: Q01DX005 (ip), vehicle: saline.
Where [11] appears, read: dose: 200.0 mg/kg/injection, schedule: Q01DX005 (ip), vehicle: Klucel (hydroxypropylcellulose) (HPC).
Setting [12] is: dose: 6.25 mg/kg/injection, schedule: Q01DX009 (ip), vehicle: saline with Tween-80.
The mark [13] stands for this setting: dose: 12.5 mg/kg/injection, schedule: Q01DX009 (ip), vehicle: saline with Tween-80.
Where [14] appears, read: dose: 50.0 mg/kg/injection, schedule: Q01DX005 (ip), vehicle: saline with Tween-80.
The mark [15] stands for this setting: dose: 100.0 mg/kg/injection, schedule: Q01DX005 (ip), vehicle: saline with Tween-80.
Where [16] appears, read: dose: 200.0 mg/kg/injection, schedule: Q01DX005 (ip), vehicle: saline with Tween-80.
The mark [17] stands for this setting: dose: 50.0 mg/kg/injection, schedule: Q01DX009 (ip), vehicle: saline with Tween-80.
The mark [18] stands for this setting: dose: 100.0 mg/kg/injection, schedule: Q01DX009 (ip), vehicle: saline with Tween-80.
Setting [19] is: dose: 200.0 mg/kg/injection, schedule: Q01DX009 (ip), vehicle: saline with Tween-80.

Take `COc1cc2c(c(OC)c1OC)-c1ccc(OC)c(=O)cc1CC=C2`: the T/C is, setting by setting: (dose: 1.25 mg/kg/injection, schedule: Q01DX009 (ip), vehicle: Klucel (hydroxypropylcellulose) (HPC)) 124 % of control; (dose: 2.5 mg/kg/injection, schedule: Q01DX009 (ip), vehicle: Klucel (hydroxypropylcellulose) (HPC)) 119 % of control and 120 % of control; (dose: 5.0 mg/kg/injection, schedule: Q01DX009 (ip), vehicle: Klucel (hydroxypropylcellulose) (HPC)) 100 % of control; (dose: 10.0 mg/kg/injection, schedule: Q01DX009 (ip), vehicle: Klucel (hydroxypropylcellulose) (HPC)) 170 % of control.
As to `Cc1cc(C)c2c(n1)sc1c(=O)n(N)c(C)nc12`, the T/C is, setting by setting: under setting [1], 87 % of control; under setting [2], 94 % of control and 95 % of control.
For `CCCCCCn1c(=O)cc2n(c1=O)CCC2`, the T/C runs as follows: under setting [1], 103 % of control; under setting [3], 101 % of control.
Consider `CS(C)(NC(N)=O)OS(=O)(=O)O`, for which the T/C (dose: 60.0 mg/kg/injection, schedule: Q01DX005 (ip), vehicle: saline) was 98 % of control; the T/C (dose: 120.0 mg/kg/injection, schedule: Q01DX005 (ip), vehicle: saline) was 98 % of control; the T/C (dose: 240.0 mg/kg/injection, schedule: Q01DX005 (ip), vehicle: saline) is 101 % of control.
In the case of `C=C1C(=O)OCC1C(=O)O` (stereo not drawn), the T/C is, setting by setting: (dose: 8.0 mg/kg/injection, schedule: Q01DX009 (ip), vehicle: saline) 121 % of control; (dose: 16.0 mg/kg/injection, schedule: Q01DX009 (ip), vehicle: saline) 114 % of control; (dose: 64.0 mg/kg/injection, schedule: Q01DX009 (ip), vehicle: saline) 103 % of control.
`C=C(N=[N+]=[N-])c1ccccc1`: the T/C runs as follows: (dose: 6.25 mg/kg/injection, schedule: Q01DX009 (ip), vehicle: other) 101 % of control; (dose: 12.5 mg/kg/injection, schedule: Q01DX009 (ip), vehicle: other) 106 % of control; (dose: 25.0 mg/kg/injection, schedule: Q01DX009 (ip), vehicle: other) 112 % of control; (dose: 50.0 mg/kg/injection, schedule: Q01DX009 (ip), vehicle: other) 117 % of control; (dose: 100.0 mg/kg/injection, schedule: Q01DX009 (ip), vehicle: other) 107 % of control.
`CCOC(=O)c1nc2cc(C)c(C)cc2[nH]c1=O`: the T/C under setting [4] is 95 % of control, the T/C under setting [5] was 100 % of control and the T/C under setting [6] was 104 % of control.
For `CCOC(=O)CN=CC1CCC=CO1` (stereo not drawn), in that order: 100 % of control, 100 % of control and 100 % of control.
In the case of `CN1C2=NC(=O)NC(=O)C23OC3c2ccccc21` (stereo not drawn) (tested in a mixture with another compound), the T/C under setting [7] was 102 % of control and the T/C under setting [8] was 103 % of control.
As for `CC1(C)CN(C(=S)N2CC(C)(C)SC2=O)C(=O)S1`, the T/C reads like this: under setting [1], 108 % of control; under setting [3], 98 % of control; under setting [2], 104 % of control.
For `COc1ccc(-c2nc(N)nc(-c3nc(N)nc(-c4ccc(OC)cc4)c3-c3ccc(OC)cc3)c2-c2ccc(OC)cc2)cc1`, in that order: 96 % of control, 96 % of control and 99 % of control.
`CC(C)(C)OC(OC1(C)COC1=O)C1(C)CO1` (stereo not drawn): the T/C is 87 % of control (dose: 50.0 mg/kg/injection, schedule: Q01DX005 (ip), vehicle: saline); 103 % of control (dose: 50.0 mg/kg/injection, schedule: Q01DX005 (ip), vehicle: water); 86 % of control under setting [9]; 105 % of control (dose: 100.0 mg/kg/injection, schedule: Q01DX005 (ip), vehicle: water); 97 % of control under setting [10]; 90 % of control (dose: 200.0 mg/kg/injection, schedule: Q01DX005 (ip), vehicle: water).
As to `CCOc1c(N=Nc2ccccc2Cl)c(C)nn1C(N)=S`, the T/C by setting is: (dose: 3.75 mg/kg/injection, schedule: Q01DX005 (ip), vehicle: Klucel + Tween-80) 103 % of control; (dose: 7.5 mg/kg/injection, schedule: Q01DX005 (ip), vehicle: Klucel + Tween-80) 103 % of control; (dose: 15.0 mg/kg/injection, schedule: Q01DX005 (ip), vehicle: Klucel + Tween-80) 100 % of control and 110 % of control.
Take `COc1ccc(C(O)C2c3c(cc4c(c3OC)OCO4)CCN2C)c(CO)c1OC` (stereo not drawn): the T/C is, setting by setting: (dose: 12.5 mg/kg/injection, schedule: Q01DX001 (ip), vehicle: Klucel (hydroxypropylcellulose) (HPC)) 88 % of control; (dose: 25.0 mg/kg/injection, schedule: Q01DX001 (ip), vehicle: Klucel (hydroxypropylcellulose) (HPC)) 88 % of control; (dose: 50.0 mg/kg/injection, schedule: Q01DX001 (ip), vehicle: Klucel (hydroxypropylcellulose) (HPC)) 94 % of control.
As to `C/C(=N\NC(=O)Cc1ccccc1)C(=O)O`, the T/C is 100 % of control under setting [7], 89 % of control under setting [8] and 94 % of control under setting [11].
As to `CCOC(=O)Nc1nc2ccccc2n1CN1CCN(C)CC1`, the T/C was 99 % of control (dose: 25.0 mg/kg/injection, schedule: Q01DX005 (ip), vehicle: Klucel (hydroxypropylcellulose) (HPC)); 102 % of control and 97 % of control under setting [7]; 100 % of control and 107 % of control under setting [8]; 113 % of control and 120 % of control under setting [11].
Turning to `OC(c1cc(-c2ccc(C(F)(F)F)cc2)nc(-c2ccc(C(F)(F)F)cc2)c1)C1CCCCN1` (stereo not drawn), the T/C reads like this: under setting [12], 109 % of control; under setting [13], 107 % of control; (dose: 25.0 mg/kg/injection, schedule: Q01DX009 (ip), vehicle: saline with Tween-80) 89 % of control.
Regarding `CONS(=O)(=O)c1ccccc1C(=O)OC`, the T/C was 105 % of control under setting [7], 100 % of control under setting [8] and 103 % of control under setting [11].
As for `O=C(CNC(=O)c1ccc(Cl)cc1Cl)N/N=C/c1ccc(Cl)c(Cl)c1`, the T/C is, setting by setting: (dose: 3.13 mg/kg/injection, schedule: Q01DX009 (ip), vehicle: saline with Tween-80) 104 % of control; under setting [12], 108 % of control; under setting [13], 104 % of control.
Take `[Cu+2].c1nn[nH]n1`: the T/C by setting is: (dose: 12.5 mg/kg/injection, schedule: Q04DX003 (ip), vehicle: Klucel (hydroxypropylcellulose) (HPC)) 93 % of control; (dose: 25.0 mg/kg/injection, schedule: Q04DX003 (ip), vehicle: Klucel (hydroxypropylcellulose) (HPC)) 97 % of control; (dose: 50.0 mg/kg/injection, schedule: Q04DX003 (ip), vehicle: Klucel (hydroxypropylcellulose) (HPC)) 95 % of control.
Take `CCOC(=O)c1cc(/C=C/c2ccc(Cl)cc2Cl)on1`: the T/C runs as follows: under setting [1], 100 % of control; under setting [3], 90 % of control.
As for `CC(=O)COc1ccccc1NC(C)=O`, the T/C runs as follows: under setting [4], 109 % of control; under setting [5], 90 % of control; under setting [6], 100 % of control.
On to `O=C(/C=C/c1ccc2c(c1)OCO2)c1cc(Cl)ccc1O`, for which the T/C reads like this: under setting [14], 93 % of control; under setting [15], 98 % of control; under setting [16], 102 % of control.
Turning to `O=[N+]([O-])c1cc(Cl)ccc1Cl`, the T/C was 100 % of control under setting [17], 100 % of control under setting [18] and 91 % of control under setting [19].
Take `N/N=C1/C=Cc2cccc3cccc1c23`: the T/C by setting is: under setting [14], 89 % of control; under setting [15], 89 % of control.
For the compound `O=[N+]([O-])c1cccn2nc(COCCO)nc12`, the T/C by setting is: (dose: 12.5 mg/kg/injection, schedule: Q01DX005 (ip), vehicle: saline with Tween-80) 97 % of control; (dose: 25.0 mg/kg/injection, schedule: Q01DX005 (ip), vehicle: saline with Tween-80) 94 % of control; under setting [14], 97 % of control; under setting [9], 113 % of control; under setting [10], 109 % of control.
With `CC(=O)c1c(OCC(O)CN(CCO)CCO)ccc2c(C)cc(=O)oc12` (stereo not drawn), the T/C runs as follows: under setting [14], 107 % of control; under setting [15], 104 % of control; under setting [16], 108 % of control.
In the case of `Cc1ccc(S(=O)(=O)C(=O)N2CCN(C(=O)S(=O)(=O)c3ccc(C)cc3)CC2)cc1`, the T/C is 100 % of control under setting [17], 107 % of control under setting [18] and 109 % of control under setting [19].

For the origin of these results see PubChem BioAssay AID330 (DTP/NCI, 2004).
